Reference: ChEMBL document CHEMBL1201862, “PubChem BioAssay data set” (2004)
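How tested: cells in 96-well plates exposed to compound for 48 hours at five concentrations. GI50 is the concentration that inhibits growth by half.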 Active and inactive are the calls of the source. Rule as the data show it: active = GI50 up to about 1.1 µM and inactive = higher.

Tests used:
Assay in all cases: growth of human tumour cells (NCI), 48 h
RXF 393 = tested on: RXF 393
HT-29 = tested on: HT-29
HCT-116 = tested on: HCT-116
KM12 = tested on: KM12
ACHN = tested on: ACHN
786-0 = tested on: 786-0
CCRF-CEM = tested on: CCRF-CEM
SN12C = tested on: SN12C
DU-145 = tested on: DU-145
TK-10 = tested on: TK-10
U-251 = tested on: U-251
SW-620 = tested on: SW-620
UO-31 = tested on: UO-31
K562 = tested on: K562
UACC-62 = tested on: UACC-62
MCF7 = tested on: MCF7
LOX IMVI = tested on: LOX IMVI
OVCAR-3 = tested on: OVCAR-3
SNB-19 = tested on: SNB-19

Measured: GI50

C#CCOC(=O)C(=[N+]=[N-])C(=O)CC(C)C
inactive: RXF 393 > 10 µM | HT-29 > 10 µM | HCT-116 > 10 µM | KM12 > 10 µM | ACHN > 10 µM | 786-0 > 10 µM | CCRF-CEM > 10 µM | SN12C > 10 µM | DU-145 > 10 µM | TK-10 > 10 µM | U-251 > 10 µM | SW-620 > 10 µM | UO-31 > 10 µM | K562 > 10 µM | UACC-62 > 10 µM | MCF7 > 10 µM | LOX IMVI > 10 µM | OVCAR-3 > 10 µM | SNB-19 > 10 µM

CN(C)c1ccc2c3c(c(=O)oc2c1)CCC3
inactive: RXF 393 64 µM | HT-29 44.8 µM | HCT-116 60.8 µM | KM12 41.7 µM | ACHN 58.5 µM | 786-0 58.6 µM | CCRF-CEM 75 µM | SN12C > 100 µM | DU-145 80.4 µM | TK-10 65.3 µM | U-251 88.3 µM | SW-620 > 100 µM | UO-31 > 100 µM | K562 69.3 µM | UACC-62 29.4 µM | MCF7 28.2 µM | LOX IMVI 40.6 µM | OVCAR-3 > 100 µM | SNB-19 > 100 µM

Nc1ccc(S(=O)(=O)Nc2nc3ccccc3nc2Nc2ccc(S(N)(=O)=O)cc2)cc1
inactive: RXF 393 20.8 µM | HT-29 57.8 µM | HCT-116 38.5 µM | KM12 33 µM | ACHN 42.7 µM | 786-0 58.3 µM | CCRF-CEM 48.8 µM | SN12C 34.6 µM | DU-145 44.9 µM | TK-10 44.6 µM | U-251 27.7 µM | SW-620 36.9 µM | UO-31 18.2 µM | K562 69.8 µM | UACC-62 30.8 µM | MCF7 57.8 µM | LOX IMVI 17.9 µM | OVCAR-3 32.4 µM | SNB-19 25.2 µM

CC1(C)OC[C@@H](O)[C@H](Br)CO1
inactive: RXF 393 > 100 µM | HT-29 > 100 µM | HCT-116 > 100 µM | KM12 > 100 µM | ACHN > 100 µM | 786-0 > 100 µM | CCRF-CEM > 100 µM | SN12C > 100 µM | DU-145 > 100 µM | TK-10 > 100 µM | U-251 > 100 µM | SW-620 > 100 µM | UO-31 > 100 µM | K562 79.8 µM | UACC-62 > 100 µM | MCF7 > 100 µM | LOX IMVI > 100 µM | OVCAR-3 > 100 µM | SNB-19 > 100 µM

O=C1c2n[nH]nc2C(=O)c2n[nH]nc21
inactive: RXF 393 > 100 µM | HT-29 > 100 µM | HCT-116 > 100 µM | KM12 > 100 µM | ACHN > 100 µM | 786-0 > 100 µM | CCRF-CEM > 100 µM | SN12C > 100 µM | DU-145 > 100 µM | TK-10 > 100 µM | U-251 > 100 µM | SW-620 > 100 µM | UO-31 > 100 µM | K562 > 100 µM | UACC-62 > 100 µM | MCF7 > 100 µM | LOX IMVI > 100 µM | OVCAR-3 > 100 µM | SNB-19 > 100 µM

O=c1c2ccccc2[nH]c(=S)n1-c1ccc(/N=N/c2cccc3cc(O)ccc23)cc1
inactive: RXF 393 > 100 µM | HT-29 > 100 µM | HCT-116 > 100 µM | KM12 > 100 µM | ACHN > 100 µM | 786-0 65.5 µM | CCRF-CEM > 100 µM | SN12C > 100 µM | DU-145 > 100 µM | TK-10 > 100 µM | U-251 54.6 µM | SW-620 > 100 µM | UO-31 > 100 µM | K562 73.6 µM | UACC-62 49.2 µM | MCF7 27 µM | LOX IMVI 43.5 µM | OVCAR-3 > 100 µM | SNB-19 > 100 µM

Nc1c(C(=O)c2ccc(Cl)cc2)[nH]c(Nc2ccc(Cl)cc2)c1C(=S)Nc1ccccc1
inactive: RXF 393 2.7 µM | HT-29 4.99 µM | HCT-116 3.7 µM | KM12 7.6 µM | ACHN 2.21 µM | 786-0 2.9 µM | CCRF-CEM 6.27 µM | SN12C 7.71 µM | DU-145 5.41 µM | TK-10 5.4 µM | U-251 2.97 µM | SW-620 6.43 µM | UO-31 3.73 µM | K562 3.29 µM | UACC-62 13.4 µM | MCF7 4.41 µM | LOX IMVI 3.64 µM | OVCAR-3 3.19 µM | SNB-19 4.36 µM

[O-][S+]1SC(=S)C2C=CC=NC21 (centres undefined)
inactive: RXF 393 18.3 µM | HT-29 16.1 µM | HCT-116 13.7 µM | KM12 87.7 µM | ACHN 18.1 µM | 786-0 14.5 µM | CCRF-CEM > 100 µM | SN12C 14.8 µM | DU-145 16.6 µM | TK-10 18.1 µM | U-251 18 µM | SW-620 > 100 µM | UO-31 14.7 µM | K562 20.9 µM | UACC-62 21.3 µM | MCF7 17.5 µM | LOX IMVI 14.9 µM | OVCAR-3 20.6 µM | SNB-19 26.1 µM

FC(F)(F)C1(C(F)(F)F)C2CCC3(CC(F)(F)C(F)(F)S3)C1C2 (centres undefined)
inactive: RXF 393 31.8 µM | HT-29 29 µM | HCT-116 20.2 µM | KM12 76.6 µM | ACHN 37.8 µM | 786-0 > 100 µM | CCRF-CEM 24.5 µM | SN12C > 100 µM | DU-145 73.6 µM | TK-10 > 100 µM | U-251 > 100 µM | SW-620 > 100 µM | UO-31 28.8 µM | K562 36 µM | UACC-62 > 100 µM | MCF7 36.1 µM | LOX IMVI 25.8 µM | OVCAR-3 19.6 µM | SNB-19 > 100 µM

O=C1OC[C@@H]2Cc3c([nH]c4ccccc34)[C@@H](c3ccc(O)cc3)N12
inactive: RXF 393 17.3 µM | HT-29 34.9 µM | HCT-116 18.7 µM | KM12 22.8 µM | ACHN 23.7 µM | 786-0 33.9 µM | CCRF-CEM 30.1 µM | SN12C 41.1 µM | DU-145 40.3 µM | TK-10 34.7 µM | U-251 39.2 µM | SW-620 54.1 µM | UO-31 30.6 µM | K562 32.1 µM | UACC-62 29.9 µM | MCF7 36.6 µM | LOX IMVI 21 µM | OVCAR-3 17.4 µM | SNB-19 54.2 µM

CCOC(=O)/C(=C\c1ccc(F)cc1)C(C)=O
inactive: RXF 393 17 µM | HT-29 24.4 µM | HCT-116 29.2 µM | KM12 24.3 µM | ACHN 21.6 µM | 786-0 22.3 µM | CCRF-CEM 26.3 µM | SN12C 63 µM | DU-145 23.2 µM | TK-10 21.6 µM | U-251 19.1 µM | SW-620 16.5 µM | UO-31 16.2 µM | K562 30.3 µM | UACC-62 18.9 µM | MCF7 29.4 µM | LOX IMVI 17.5 µM | OVCAR-3 32.8 µM | SNB-19 33.8 µM
